Experimental data: PMC9029360, “Cyclooxygenase-Inhibiting Platinum(IV) Prodrugs with Potent Anticancer Activity” (Pharmaceutics, 2022)
Where two headings read alike, the source gives them in different places.

How the values were obtained:
[1] = system: U87 glioblastoma; details: MTT, 72 h, cited from earlier work
[2] = system: A2780 ovarian; details: MTT, 72 h, cited from earlier work
[3] = system: MIA pancreas; details: MTT, 72 h, cited from earlier work
[4] = system: MCF-7 breast; details: MTT, 72 h, cited from earlier work
[5] = system: MCF10A breast cell line (non-tumour derived); details: MTT, 72 h, ref [1] Deo et al., Dalton Trans. 2019; cited from earlier work
[6] = system: HT29 colon cancer cell line; details: MTT, 72 h, cited from earlier work
[7] = system: BE2-C neuroblastoma; details: MTT, 72 h, cited from earlier work
[8] = system: H460 lung; details: MTT, 72 h, cited from earlier work
[9] = system: Du145 prostate cancer cell line; details: MTT, 72 h, cited from earlier work
[10] = system: A431 skin; details: MTT, 72 h, cited from earlier work
[11] = system: SJ-G2 glioblastoma; details: MTT, 72 h, cited from earlier work
[12] = system: MCF10A breast cell line (non-tumour derived); experiment: In vitro cytotoxicity MTT assay, non-tumour MCF10A breast; type: cell-based; details: MCF10A (non-cancerous), 72 h drug exposure, n = 3
[13] = system: U87 glioblastoma; experiment: In vitro cytotoxicity MTT assay, U87 glioblastoma; type: cell-based; details: 72 h drug exposure, n = 3
[14] = system: cisplatin-resistant ADDP ovarian (subclone of A2780 cell line); experiment: In vitro cytotoxicity MTT assay, cisplatin-resistant ADDP ovarian; type: cell-based; details: ADDP (cisplatin-resistant); MTT, 72 h drug exposure, n = 3
[15] = system: SJ-G2 glioblastoma; experiment: In vitro cytotoxicity MTT assay, SJ-G2 glioblastoma; type: cell-based; details: 72 h drug exposure, n = 3
[16] = system: Du145 prostate cancer cell line; experiment: In vitro cytotoxicity MTT assay, Du145 prostate; type: cell-based; details: 72 h drug exposure, n = 3
[17] = system: A431 skin; experiment: In vitro cytotoxicity MTT assay, A431 skin; type: cell-based; details: 72 h drug exposure, n = 3
[18] = system: BE2-C neuroblastoma; experiment: In vitro cytotoxicity MTT assay, BE2-C neuroblastoma; type: cell-based; details: 72 h drug exposure, n = 3
[19] = system: HT29 colon cancer cell line; experiment: In vitro cytotoxicity MTT assay, HT29 colon; type: cell-based; details: 72 h drug exposure, n = 3
[20] = system: MIA pancreas; experiment: In vitro cytotoxicity MTT assay, MIA pancreas; type: cell-based; details: 72 h drug exposure, n = 3
[21] = system: MCF-7 breast; experiment: In vitro cytotoxicity MTT assay, MCF-7 breast; type: cell-based; details: 72 h drug exposure, n = 3
[22] = system: A2780 ovarian; experiment: In vitro cytotoxicity MTT assay, A2780 ovarian; type: cell-based; details: 72 h drug exposure, n = 3
[23] = system: H460 lung; experiment: In vitro cytotoxicity MTT assay, H460 lung; type: cell-based; details: 72 h drug exposure, n = 3
[24] = system: cisplatin-resistant ADDP ovarian (subclone of A2780 cell line); details: MTT, 72 h, ref [2] Macias et al., Eur. J. Chem. 2015; cited from earlier work
[25] = ref [1] Deo et al., Dalton Trans. 2019
[26] = ref [2] Macias et al., Eur. J. Chem. 2015

N[C@H]1CCCC[C@@H]1N.O=[N+]([O-])[O-].O=[N+]([O-])[O-].[OH-].[OH-].[Pt+4].c1cnc2c(c1)ccc1cccnc12 [PHENSS(IV)]
GI50 [1, 25]: 4900 ± 610 nM | GI50 [2, 25]: 800 ± 84 nM | GI50 [3, 25]: 3400 nM | GI50 [4, 25]: 16000 nM | GI50 [5]: 1700 nM | GI50 [6, 25]: 710 ± 300 nM | GI50 [7, 25]: 3000 ± 530 nM | GI50 [8, 25]: 1700 ± 200 nM | GI50 [9, 25]: 310 ± 92 nM | GI50 [10, 25]: 4300 ± 530 nM | GI50 [11, 25]: 1700 nM

Cc1c(C)c2cccnc2c2ncccc12.N[C@H]1CCCC[C@@H]1N.O=[N+]([O-])[O-].O=[N+]([O-])[O-].[OH-].[OH-].[Pt+4] [56MESS(IV)]
GI50 [12]: 61 ± 7.3 nM | GI50 [13]: 190 ± 23 nM | GI50 [14]: 170 ± 120 nM | GI50 [15]: 210 ± 45 nM | GI50 [16]: 15 ± 2.6 nM | GI50 [17]: 120 ± 22 nM | GI50 [18]: 240 ± 22 nM | GI50 [19]: 36 ± 7 nM | GI50 [20]: 43 ± 2.5 nM | GI50 [21]: 480 ± 140 nM | GI50 [22]: 56 ± 7.1 nM | GI50 [23]: 190 ± 150 nM

N[C@H]1CCCC[C@@H]1N.[Cl-].[Cl-].[Pt+2].c1cnc2c(c1)ccc1cccnc12 [PHENSS(II)]
GI50 [12]: 240 ± 60 nM | GI50 [13]: 1200 ± 340 nM | GI50 [14]: 230 ± 49 nM | GI50 [15]: 440 ± 55 nM | GI50 [16]: 110 ± 27 nM | GI50 [17]: 340 ± 100 nM | GI50 [18]: 390 ± 60 nM | GI50 [19]: 87 ± 27 nM | GI50 [20]: 240 ± 22 nM | GI50 [21]: 250 ± 41 nM | GI50 [22]: 290 ± 37 nM | GI50 [23]: 300 ± 32 nM

Cc1c(C)c2cccnc2c2ncccc12.N[C@H]1CCCC[C@@H]1N.[Cl-].[Cl-].[Pt+2] [56MESS(II)]
GI50 [12]: 25 ± 10 nM | GI50 [13]: 76 ± 8.7 nM | GI50 [14]: 27 ± 4.1 nM | GI50 [15]: 150 nM | GI50 [16]: 10 ± 1.3 nM | GI50 [17]: 36 ± 11 nM | GI50 [18]: 86 ± 3 nM | GI50 [19]: 15 ± 6.2 nM | GI50 [20]: 22 nM | GI50 [21]: 33 ± 12 nM | GI50 [22]: 39 ± 7.7 nM | GI50 [23]: 28 ± 4.7 nM

O=C1[O][Pt]2([NH][C@@H]3CCCC[C@H]3[NH]2)[O]C1=O [Oxaliplatin, oxaliplatin]
GI50 [1, 26]: 1800 ± 200 nM | GI50 [24]: 822 ± 130 nM | GI50 [2, 26]: 160 nM | GI50 [3, 26]: 900 nM | GI50 [4, 26]: 500 ± 100 nM | GI50 [6, 26]: 900 ± 200 nM | GI50 [7, 26]: 900 ± 200 nM | GI50 [8, 26]: 1600 ± 100 nM | GI50 [9, 26]: 2900 ± 400 nM | GI50 [10, 26]: 4100 ± 500 nM | GI50 [11, 26]: 3000 ± 1200 nM
